Patent US10941157B2, “Pesticidal compositions and uses thereof” (Gilead Apollo, LLC, priority 2015, dated 2021)
Converted amounts (≈) assume the structure as drawn. Like-named read-outs stand apart in the source and are kept apart here.

Key:
[1] = tested on: Botrtyis cinerea (Bc); assay: In vitro pathogen growth inhibition assay, Bc; format: cell-based; conditions: 48 h
How it was run: (§1)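 Spores in 17% V8 liquid medium, or 1.5 mm Rs mycelial plugs in ¼ PDB, incubated with compound; final concentration checked by OD600 for precipitation. OD readings at 24 and 48 h, blank-subtracted, plus visual ratings; value is concentration giving ≥90% growth inhibition.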

[2] = tested on: Collectotrichum graminicola (Cg); assay: In vitro pathogen growth inhibition assay, Cg; format: cell-based; conditions: 48 h
How it was run: as §1

[3] = tested on: Diplodia maydis (Dm); assay: In vitro pathogen growth inhibition assay, Dm; format: cell-based; conditions: Stenocarpella maydis, 48 h
How it was run: as §1

[4] = tested on: Fusarium moniliforme (Fm); assay: In vitro pathogen growth inhibition assay, Fm; format: cell-based; conditions: Fusarium verticillioides
How it was run: as §1

[5] = tested on: Fusarium virguliforme (Fv); assay: In vitro pathogen growth inhibition assay, Fv; format: cell-based
How it was run: as §1

[6] = tested on: Phytophthora capsici (Pc); assay: In vitro pathogen growth inhibition assay, Pc; format: cell-based; conditions: 48 h
How it was run: as §1

[7] = tested on: Rhizoctonia solani (Rs); assay: In vitro pathogen growth inhibition assay, Rs (mycelial plugs); format: cell-based; conditions: Rhizoctonia solani, 48 h, mycelial plugs
How it was run: as §1

[8] = tested on: Septoria tritici (St); assay: In vitro pathogen growth inhibition assay, St; format: cell-based; conditions: Zymoseptoria tritici, 48 h
How it was run: as §1

[9] = tested on: Blumeria graminis f. sp. hordei; assay: Foliar protection test for barley powdery mildew control; format: in vivo; conditions: foliar spray on Hordeum vulgare cv. Perry, inoculated 24 hours after treatment, evaluated 7 days later
How it was run: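 Six-day-old barley (cv. Perry) sprayed to wetness on both leaf sides; 24 h later inoculated by shaking spores from infected stock plants. Kept at 20 to 22° C, 70% relative humidity; mildew colonization assessed 7 days later.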

[10] = tested on: Sphaerotheca fuliginea; assay: Foliar protection for cucumber powdery mildew control; format: in vivo; conditions: foliar spray on Cucumis sativus cv. Straight Eight, inoculated 24 hours after treatment, evaluated 7 days later
How it was run: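 Cucumber plants (cv. Straight Eight, 10 days old) sprayed to wetness on both leaf surfaces, then inoculated 24 h later by shaking sporulating stock plants over them. Held at 23–27 °C, 16 h light, 60% RH. Mildew colonization scored 7 days after inoculation, at compound concentrations of 10 ppm or lower.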

[11] = tested on: Mycosphaerella graminicola (synthetic Septoria tritici); assay: Foliar protection test for wheat septoria leaf blotch control; format: in vivo; conditions: foliar spray on Triticum aestivum cv. WinterHawk, inoculated 1 hour after treatment, evaluated 16 days later
[12] = tested on: Fusarium graminearum; format: in vivo; conditions: spray on flowering Triticum aestivum cv. Samson, inoculated 24 hours after treatment, evaluated 14 days later
[13] = tested on: Puccinia triticina; assay: Foliar protection test for wheat leaf rust control; format: in vivo; conditions: foliar application to wheat (Triticum aestivum cv. Winterhawk), evaluated 10 days later
[14] = tested on: Phakopsora pachyrhizi; assay: Foliar protection test for Asian soybean rust control; format: in vivo; conditions: foliar application to soybean (Glycine max AG4832), percent disease area evaluated 14 days later
[15] = tested on: Fusarium graminearum; format: in vivo; conditions: corn from treated seeds, 0.025 mg/seed, F. graminearum inoculated, Table 13
[16] = tested on: Rhizoctonia solani; assay: Seed protectant for soybean seedling disease, R. solani; format: in vivo; conditions: soybean from treated seeds, 0.025 mg/seed, R. solani inoculated; for Plant Weight: fresh weight at 14 days; for Improvement in plant weight: percentage of non-inoculated non-treated controls
Experimental: (§2) The pathogen of Rhizoctonia solani inoculum was grown on sterile sorghum; and the pathogen of Pythium ultimum inoculum was grown on white millet.
(§3) Soybean seeds (Glycine max cv. AG4832) were planted in 2.5-inch square pots containing Berger BM2 germination mix amended with fertilizer (e.g., 14-14-14). Pots with soil were inoculated with the pathogen of R. solani or P. ultimum at time of planting. A hole was pressed into the soil to a depth of about 2 to 3 cm; the inoculum was added to the hole, followed by the seed which was then covered with soil. Two seeds per pot were planted. Plants were grown in a growth chamber at conditions of 20 to 24° C., 14 hour light cycle, 500 uM of light, and 65% humidity. The pots inoculated with P. ultimum were sub-irrigated every day; and the pots inoculated with R. solani were sub-irrigated every other day.
(§4) Seedling emergence was captured at 7 and 14 days after seeding. At 14 days, the top of the plant was removed and fresh weight was recorded. The plant weights from the seeds treated with test compounds (e.g., in formulations) were compared to the ones either from the inoculated non-treated seeds or non-inoculated non-treated seeds. Table 10 lists the results of the R. solani control in soybean upon seed treatment with test compounds, and Table 11 lists the results of the P. ultimum control in soybean upon seed treatment with test compounds, respectively.

[17] = tested on: Pythium ultimum; assay: Seed protectant for soybean seedling disease, P. ultimum; format: in vivo; conditions: soybean from treated seeds, 0.025 mg/seed, P. ultimum inoculated; for Plant Weight: fresh weight at 14 days; for Improvement in plant weight: percentage of non-inoculated non-treated controls
Experimental: as §2, §3, §4

[18] = ≥90% growth inhibition, 48 hours, vs 2% DMSO control, read-out: Compound Concentration (ppm) sufficient for ≥90% inhibition of Bc
[19] = ≥90% growth inhibition, 48 hours, vs 2% DMSO control, read-out: Compound Concentration (ppm) sufficient for ≥90% inhibition of Cg
[20] = ≥90% growth inhibition, 48 hours, vs 2% DMSO control, read-out: Compound Concentration (ppm) sufficient for ≥90% inhibition of Dm
[21] = ≥90% growth inhibition, 48 hours, vs 2% DMSO control, read-out: Compound Concentration (ppm) sufficient for ≥90% inhibition of Fm
[22] = ≥90% growth inhibition, 48 hours, vs 2% DMSO control, read-out: Compound Concentration (ppm) sufficient for ≥90% inhibition of Fv
[23] = ≥90% growth inhibition, 48 hours, vs 2% DMSO control, read-out: Compound Concentration (ppm) sufficient for ≥90% inhibition of Pc
[24] = ≥90% growth inhibition, 48 hours, vs 2% DMSO control, read-out: Compound Concentration (ppm) sufficient for ≥90% inhibition of Rs
[25] = ≥90% growth inhibition, 48 hours, vs 2% DMSO control, read-out: Compound Concentration (ppm) sufficient for ≥90% inhibition of St
[26] = ≥90% inhibition, 48 hours vs 2% DMSO control, read-out: Compound Concentration (ppm) sufficient for ≥90% inhibition of growth, Bc
[27] = ≥90% inhibition, 48 hours vs 2% DMSO control, read-out: Compound Concentration (ppm) sufficient for ≥90% inhibition of growth, Cg
[28] = ≥90% inhibition, 48 hours vs 2% DMSO control, read-out: Compound Concentration (ppm) sufficient for ≥90% inhibition of growth, Dm
[29] = ≥90% inhibition, 48 hours vs 2% DMSO control, read-out: Compound Concentration (ppm) sufficient for ≥90% inhibition of growth, Fm
[30] = ≥90% inhibition, 48 hours vs 2% DMSO control, read-out: Compound Concentration (ppm) sufficient for ≥90% inhibition of growth, Fv
[31] = ≥90% inhibition, 48 hours vs 2% DMSO control, read-out: Compound Concentration (ppm) sufficient for ≥90% inhibition of growth, Pc
[32] = ≥90% inhibition, 48 hours vs 2% DMSO control, read-out: Compound Concentration (ppm) sufficient for ≥90% inhibition of growth, Rs
[33] = ≥90% inhibition, 48 hours vs 2% DMSO control, read-out: Compound Concentration (ppm) sufficient for ≥90% inhibition of growth, St

Row | Structure (SMILES) | IC90 [1, 18] | IC90 [2, 19] | IC90 [3, 20] | IC90 [4, 21] | IC90 [5, 22] | IC90 [6, 23] | IC90 [7, 24] | IC90 [8, 25] | Barley Powdery Mildew Control at a compound concentration of 10 ppm or lower [9] | Cucumber Powdery Mildew Control at a compound concentration of 10 ppm or lower [10] | Septoria Leaf Blotch Control at a compound concentration of 25 ppm or lower [11] | Wheat Fusarium Head Blight Control at a compound concentration of 25 ppm or lower [12] | Wheat Leaf Rust Control at a compound concentration of 10 ppm or lower [13] | Asian Soybean Rust Control at a compound concentration of 25 ppm or lower [14] | Plant Height [15] | IC90 [1, 26] | IC90 [2, 27] | IC90 [3, 28] | IC90 [4, 29] | IC90 [5, 30] | also measured
1 | COc1ccc(F)cc1[C@H](Cn1c(=O)n([C@H](C)C(=O)NC(C)C)c(=O)c2c(C)c(-n3nccn3)sc21)OCC(C)(C)C#N [Compound I-253, (R)-2-(1-((R)-2-(2-cyano-2-methylpropoxy)-2-(5-fluoro-2-methoxyphenyl)ethyl)-5-methyl-2,4-dioxo-6-(2H-1,2,3-triazol-2-yl)-1,4-dihydrothieno[2,3-d]pyrimidin-3 (2H)-yl)-N-isopropylpropanamide] | 0.4 µg/mL (≈ 0.654 µM) | 0.4 µg/mL (≈ 0.654 µM) | 0.4 µg/mL (≈ 0.654 µM) | 0.08 µg/mL (≈ 0.131 µM) | 0.4 µg/mL (≈ 0.654 µM) | ≥ 50 µg/mL | 0.08 µg/mL (≈ 0.131 µM) | ≥ 2 µg/mL | A (from 70% to 84% control of barley powdery mildew) | AA (≥85% control of cucumber powdery mildew) | AA (≥85% control of wheat septoria leaf blotch) | B (from 50 to 69% control of wheat fusarium head blight) | AA (≥85% control of wheat leaf rust) | A (from 70% to 84% control of Asian soybean rust) | 37.81 cm | – | – | – | – | – | –
2 | COCCO[C@@H](Cn1c(=O)n(C(C)(C)C(=O)NC(C)C)c(=O)c2c(C)c(-n3nccn3)sc21)c1cc(F)ccc1OC [Compound I-074, (R)-2-(1-(2-(5-fluoro-2-methoxyphenyl)-2-(2-methoxyethoxy)ethyl)-5-methyl-2,4-dioxo-6-(2H-1,2,3-triazol-2-yl)-1,4-dihydrothieno[2,3-d]pyrimidin-3 (2H)-yl)-N-isopropyl-2-methylpropanamide] | – | – | – | – | – | – | – | – | AA (≥85% control of barley powdery mildew) | AA (≥85% control of cucumber powdery mildew) | AA (≥85% control of wheat septoria leaf blotch) | C (from 25 to 49% control of wheat fusarium head blight) | A (from 70% to 84% control of wheat leaf rust) | C (from 25 to 49% control of Asian soybean rust) | – | 2 µg/mL (≈ 3.32 µM) | 2 µg/mL (≈ 3.32 µM) | 2 µg/mL (≈ 3.32 µM) | 0.08 µg/mL (≈ 0.133 µM) | 0.4 µg/mL (≈ 0.664 µM) | IC90 [6, 31]: ≥ 50 µg/mL; IC90 [7, 32]: 0.4 µg/mL (≈ 0.664 µM); IC90 [8, 33]: > 50 µg/mL; Plant Weight [16]: 2.06 g; Improvement in plant weight [16]: 25.7%; Plant Weight [17]: 4.33 g; Improvement in plant weight [17]: 69%
3 | COc1ccc(F)cc1[C@H](Cn1c(=O)n([C@H](C)C(=O)N(C)C(C)C)c(=O)c2c(C)c(-n3nccn3)sc21)OCCC#N [Compound I-205, (R)-2-(1-((R)-2-(2-cyanoethoxy)-2-(5-fluoro-2-methoxyphenyl)ethyl)-5-methyl-2,4-dioxo-6-(2H-1,2,3-triazol-2-yl)-1,4-dihydrothieno[2,3-d]pyrimidin-3 (2H)-yl)-N-isopropyl-N-methylpropanamide] | 0.4 µg/mL (≈ 0.669 µM) | 0.4 µg/mL (≈ 0.669 µM) | ≥ 0.08 µg/mL | 0.4 µg/mL (≈ 0.669 µM) | 0.4 µg/mL (≈ 0.669 µM) | > 50 µg/mL | 0.08 µg/mL (≈ 0.134 µM) | > 50 µg/mL | AA (≥85% control of barley powdery mildew) | AA (≥85% control of cucumber powdery mildew) | AA (≥85% control of wheat septoria leaf blotch) | C (from 25 to 49% control of wheat fusarium head blight) | AA (≥85% control of wheat leaf rust) | AA (≥85% control of Asian soybean rust) | 41.47 cm | – | – | – | – | – | –
4 | COc1ccc(F)cc1[C@H](Cn1c(=O)n(C(C)(C)C(=O)NC(C)C)c(=O)c2c(C)c(-n3nccn3)sc21)OCCO [Compound I-064, (R)-2-(1-(2-(5-fluoro-2-methoxyphenyl)-2-(2-hydroxyethoxy)ethyl)-5-methyl-2,4-dioxo-6-(2H-1,2,3-triazol-2-yl)-1,4-dihydrothieno[2,3-d]pyrimidin-3 (2H)-yl)-N-isopropyl-2-methylpropanamide] | – | – | – | – | – | – | – | – | A (from 70% to 84% control of barley powdery mildew) | AA (≥85% control of cucumber powdery mildew) | A (from 70% to 84% control of wheat septoria leaf blotch) | C (from 25 to 49% control of wheat fusarium head blight) | AA (≥85% control of wheat leaf rust) | A (from 70% to 84% control of Asian soybean rust) | – | 2 µg/mL (≈ 3.4 µM) | 0.4 µg/mL (≈ 0.68 µM) | 0.4 µg/mL (≈ 0.68 µM) | 0.08 µg/mL (≈ 0.136 µM) | 0.4 µg/mL (≈ 0.68 µM) | IC90 [6, 31]: ≥ 2 µg/mL; IC90 [7, 32]: ≥ 0.08 µg/mL; IC90 [8, 33]: ≥ 2 µg/mL; Plant Weight [16]: 6.41 g; Improvement in plant weight [16]: 79.9%; Plant Weight [17]: 5.49 g; Improvement in plant weight [17]: 88%
